Measured values from PMC5601486, “Identification of 4-phenylquinolin-2(1H)-one as a specific allosteric inhibitor of Akt” (Scientific Reports, 2017).
Entries after “also recorded” stand apart in the source; their conditions may differ.

Key:
[1] = system: PAK6; test: KINOMEscan; details: 50000 nM
Procedure: KINOMEscan™ selectivity screen
(§1) Briefly, Kinase-tagged T7 phage strains were grown in parallel in an E. coli host derived from the BL21 strain. E. coli were grown to log-phase and infected with T7 phage from a frozen stock and incubated with shaking at 32°C until lysis (90-150 minutes). The kinases were produced in HEK-293 cells and subsequently tagged with DNA for qPCR detection. Streptavidin-coated magnetic beads were treated with biotinylated small molecule ligands to generate affinity resins for kinase
(§2) inhibitor or DMSO control was performed in polypropylene 384-well plates for 1 hr at room temperature. After wash with PBS buffer containing 0.05% Tween 20, the beads were incubated in elution buffer (PBS containing 0.05 % Tween 20 and 0.5 μM non-biotinylated affinity ligand) for 30 minutes at room temperature. The kinase concentration in the eluates was measured by qPCR.

[2] = system: MST3; test: KINOMEscan; details: 50000 nM
Procedure: KINOMEscan™ selectivity screen
(§3) The assay was perfor med at DiscoveRx Corporation according the methods published previously5. Briefly, Kinase-tagged T7 phage strains were grown in parallel in an E. coli host derived from the BL21 strain. E. coli were grown to log-phase and infected with T7 phage from a frozen stock and incubated with shaking at 32°C until lysis (90-150 minutes). The kinases were produced in HEK-293 cells and subsequently tagged with DNA for qPCR detection. Streptavidin-coated magnetic beads were treated with biotinylated small molecule ligands to generate affinity resins for kinase
as §2

[3] = system: ASK2; test: KINOMEscan; details: 50000 nM
Procedure: KINOMEscan™ selectivity screen
as §1, §2

[4] = system: CDC2L2; test: KINOMEscan; details: 50000 nM
Procedure: KINOMEscan™ selectivity screen
as §1, §2

[5] = system: SGK; test: KINOMEscan; details: 50000 nM
Procedure: KINOMEscan™ selectivity screen
as §3, §2

[6] = system: PIK3CD; test: KINOMEscan; details: 50000 nM
Procedure: KINOMEscan™ selectivity screen
as §3, §2

[7] = system: SGK2; test: KINOMEscan; details: 50000 nM
Procedure: KINOMEscan™ selectivity screen
as §1, §2

[8] = system: PKAC-beta; test: KINOMEscan; details: 50000 nM
Procedure: KINOMEscan™ selectivity screen
as §3, §2

[9] = system: OSR1; test: KINOMEscan; details: 50000 nM
Procedure: KINOMEscan™ selectivity screen
as §1, §2

[10] = system: activated Akt; test: Substrate peptide phosphorylation by activated Akt (ELISA-based); type: biochemical; details: 20 µM G7, ATP and substrate peptide
[11] = system: ADCK3; test: KINOMEscan; details: 50000 nM
Procedure: KINOMEscan™ selectivity screen
as §3, §2

[12] = system: TEC; test: KINOMEscan; details: 50000 nM
Procedure: KINOMEscan™ selectivity screen
as §1, §2

[13] = system: TIE1; test: KINOMEscan; details: 50000 nM
Procedure: KINOMEscan™ selectivity screen
(§4) The assay was perfor med at DiscoveRx Corporation according the methods published previously5. […] The kinases were produced in HEK-293 cells and subsequently tagged with DNA for qPCR detection. Streptavidin-coated magnetic beads were treated with biotinylated small molecule ligands to generate affinity resins for kinase
as §2

[14] = system: CSNK2A1; test: KINOMEscan; details: 50000 nM
Procedure: KINOMEscan™ selectivity screen
as §3, §2

[15] = system: TAOK1; test: KINOMEscan; details: 50000 nM
Procedure: KINOMEscan™ selectivity screen
as §3, §2

[16] = system: VPS34; test: KINOMEscan; details: 50000 nM
Procedure: KINOMEscan™ selectivity screen
as §3, §2

[17] = system: CHEK2; test: KINOMEscan; details: 50000 nM
Procedure: KINOMEscan™ selectivity screen
as §1, §2

[18] = system: CAMK4; test: KINOMEscan; details: 50000 nM
Procedure: KINOMEscan™ selectivity screen
as §3, §2

[19] = system: TAOK2; test: KINOMEscan; details: 50000 nM
Procedure: KINOMEscan™ selectivity screen
Briefly, Kinase-tagged T7 phage strains were grown in parallel in an E. coli host derived from the BL21 strain. E. coli were grown to log-phase and infected with T7 phage from a frozen stock and incubated with shaking at 32°C until lysis (90-150 minutes). The kinases were produced in HEK-293 cells and subsequently tagged with DNA for qPCR detection.
After wash with PBS buffer containing 0.05% Tween 20, the beads were incubated in elution buffer (PBS containing 0.05 % Tween 20 and 0.5 μM non-biotinylated affinity ligand) for 30 minutes at room temperature. The kinase concentration in the eluates was measured by qPCR.

[20] = system: AKT2; test: KINOMEscan; details: 50000 nM
Procedure: KINOMEscan™ selectivity screen
as §1, §2

[21] = system: ABL1(Q252H)-phosphorylated; test: KINOMEscan; details: 50000 nM
Procedure: KINOMEscan™ selectivity screen
as §3, §2

[22] = system: RET(V804M); test: KINOMEscan; details: 50000 nM
Procedure: KINOMEscan™ selectivity screen
as §3, §2

[23] = system: ABL1(Q252H)-nonphosphorylated; test: KINOMEscan; details: 50000 nM
Procedure: KINOMEscan™ selectivity screen
as §3, §2

[24] = system: ABL1(F317L)-nonphosphorylated; test: KINOMEscan; details: 50000 nM
Procedure: KINOMEscan™ selectivity screen
as §3, §2

[25] = system: CAMK1; test: KINOMEscan; details: 50000 nM
Procedure: KINOMEscan™ selectivity screen
as §3, §2

[26] = system: PIM3; test: KINOMEscan; details: 50000 nM
Procedure: KINOMEscan™ selectivity screen
as §3, §2

[27] = system: CSNK1G3; test: KINOMEscan; details: 50000 nM
Procedure: KINOMEscan™ selectivity screen
as §1, §2

[28] = system: FGFR4; test: KINOMEscan; details: 50000 nM
Procedure: KINOMEscan™ selectivity screen
as §4, §2

[29] = system: SNARK; test: KINOMEscan; details: 50000 nM
Procedure: KINOMEscan™ selectivity screen
as §3, §2

[30] = system: DCAMKL1; test: KINOMEscan; details: 50000 nM
Procedure: KINOMEscan™ selectivity screen
as §3, §2

[31] = system: INSR; test: KINOMEscan; details: 50000 nM
Procedure: KINOMEscan™ selectivity screen
as §4, §2

[32] = system: MKNK2; test: KINOMEscan; details: 50000 nM
Procedure: KINOMEscan™ selectivity screen
as §1, §2

[33] = system: NEK1; test: KINOMEscan; details: 50000 nM
Procedure: as §1, §2

[34] = system: YSK4; test: KINOMEscan; details: 50000 nM
Procedure: KINOMEscan™ selectivity screen
as §3, §2

[35] = system: CASK; test: KINOMEscan; details: 50000 nM
Procedure: KINOMEscan™ selectivity screen
as §1, §2

[36] = system: IRAK1; test: KINOMEscan; details: 50000 nM
Procedure: KINOMEscan™ selectivity screen
as §3, §2

[37] = system: WEE1; test: KINOMEscan; details: 50000 nM
Procedure: KINOMEscan™ selectivity screen
as §3, §2

[38] = system: PKMYT1; test: KINOMEscan; details: 50000 nM
Procedure: KINOMEscan™ selectivity screen
as §1, §2

[39] = system: ERK2; test: KINOMEscan; details: 50000 nM
Procedure: KINOMEscan™ selectivity screen
as §3, §2

[40] = system: ABL1(F317I)-nonphosphorylated; test: KINOMEscan; details: 50000 nM
Procedure: KINOMEscan™ selectivity screen
as §3, §2

[41] = system: MAP3K3; test: KINOMEscan; details: 50000 nM
Procedure: KINOMEscan™ selectivity screen
as §1, §2

[42] = system: INSRR; test: KINOMEscan; details: 50000 nM
Procedure: KINOMEscan™ selectivity screen
as §3, §2

[43] = system: ICK; test: KINOMEscan; details: 50000 nM
Procedure: KINOMEscan™ selectivity screen
as §1, §2

[44] = system: JAK3(JH1domain-catalytic); test: KINOMEscan; details: 50000 nM
Procedure: KINOMEscan™ selectivity screen
as §4, §2

[45] = system: TGFBR1; test: KINOMEscan; details: 50000 nM
Procedure: KINOMEscan™ selectivity screen
as §3, §2

[46] = system: MST1R; test: KINOMEscan; details: 50000 nM
Procedure: KINOMEscan™ selectivity screen
as §3, §2

[47] = system: FGFR3; test: KINOMEscan; details: 50000 nM
Procedure: KINOMEscan™ selectivity screen
as §3, §2

[48] = system: FLT3(ITD); test: KINOMEscan; details: 50000 nM
Procedure: KINOMEscan™ selectivity screen
as §4, §2

[49] = system: CAMK2A; test: KINOMEscan; details: 50000 nM
Procedure: KINOMEscan™ selectivity screen
as §3, §2

[50] = system: CAMKK2; test: KINOMEscan; details: 50000 nM
Procedure: KINOMEscan™ selectivity screen
as §3, §2

[51] = system: FLT3(K663Q); test: KINOMEscan; details: 50000 nM
Procedure: KINOMEscan™ selectivity screen
as §1, §2

[52] = system: PAK4; test: KINOMEscan; details: 50000 nM
Procedure: as §1, §2

[53] = system: TRPM6; test: KINOMEscan; details: 50000 nM
Procedure: KINOMEscan™ selectivity screen
as §1, §2

Oc1cc(-c2ccccc2)c2ccccc2n1 [G7, 4-phenylquinolin-2(1H)-one]
Percent Control [1]: 87% | Percent Control [2]: 59% | Percent Control [3]: 78% | Percent Control [4]: 88% | Percent Control [5]: 66% | Percent Control [6]: 100% | Percent Control [7]: 62% | Percent Control [8]: 86% | Percent Control [9]: 87% | effect on phosphorylation capability of activated Akt [10]: No effects; also recorded: only negligible change | Percent Control [11]: 92% | Percent Control [12]: 71% | Percent Control [13]: 84% | Percent Control [14]: 78% | Percent Control [15]: 95% | Percent Control [16]: 35% | Percent Control [17]: 100% | Percent Control [18]: 100% | Percent Control [19]: 93% | Percent Control [20]: 93% | Percent Control [21]: 33% | Percent Control [22]: 85% | Percent Control [23]: 46% | Percent Control [24]: 94% | Percent Control [25]: 84% | Percent Control [26]: 64% | Percent Control [27]: 71% | Percent Control [28]: 96% | Percent Control [29]: 45% | Percent Control [30]: 87% | Percent Control [31]: 56% | Percent Control [32]: 65% | Percent Control [33]: 88% | Percent Control [34]: 55% | Percent Control [35]: 89% | Percent Control [36]: 53% | Percent Control [37]: 100% | Percent Control [38]: 65% | Percent Control [39]: 93% | Percent Control [40]: 71% | Percent Control [41]: 62% | Percent Control [42]: 64% | Percent Control [43]: 71% | Percent Control [44]: 56% | Percent Control [45]: 100% | Percent Control [46]: 100% | Percent Control [47]: 83% | Percent Control [48]: 52% | Percent Control [49]: 87% | Percent Control [50]: 90% | Percent Control [51]: 29% | Percent Control [52]: 84% | Percent Control [53]: 78%
